Laboratory results reported in publication PMC9976899, “Identification of a novel 5-aminomethyl-2-thiouridine methyltransferase in tRNA modification” (Nucleic Acids Research, 2023).

Columns and labels:
osMnmM (osYtqB) = target: T1, osMnmM (osYtqB) (Oryza sativa, UniProt Q0DGU2); settings: 0.1 mM SAM, 20 uM enzyme, bulk tRNA from B. subtilis delta-ytqB (nm5s2U), pH 7.5, 37 C
T1 construct: gene Os05g0511700

atMnmM (atYtqB) = target: T2, atMnmM (atYtqB) (Arabidopsis thaliana, UniProt Q8GUP2); test: in vitro tRNA methylation, nucleoside HPLC / LC-MS; assay type: biochemical; settings: 0.1 mM SAM, 20 uM enzyme, bulk tRNA from B. subtilis delta-ytqB (nm5s2U), pH 7.5, 37 C
T2 construct: gene At1g16445; residues 53-274, chloroplast signal peptide removed, codon-optimized, His-tagged, expressed in E. coli BL21(DE3)
T2 sequence (Q8GUP2 53-274): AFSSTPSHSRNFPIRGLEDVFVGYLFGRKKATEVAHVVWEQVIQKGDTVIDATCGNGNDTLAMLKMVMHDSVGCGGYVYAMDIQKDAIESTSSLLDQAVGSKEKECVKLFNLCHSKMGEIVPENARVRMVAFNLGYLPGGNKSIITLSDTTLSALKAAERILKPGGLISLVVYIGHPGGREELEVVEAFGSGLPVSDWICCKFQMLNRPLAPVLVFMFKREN

T1 sequence (Q0DGU2 48-260): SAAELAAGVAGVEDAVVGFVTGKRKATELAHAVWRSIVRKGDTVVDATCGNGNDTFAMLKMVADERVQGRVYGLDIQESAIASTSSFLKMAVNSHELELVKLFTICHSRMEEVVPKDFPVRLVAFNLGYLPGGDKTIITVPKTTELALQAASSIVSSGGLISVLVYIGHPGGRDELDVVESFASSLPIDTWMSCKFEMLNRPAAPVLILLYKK

C[S+](CC[C@H](N)C(=O)O)C[C@H]1O[C@@H](n2cnc3c(N)ncnc32)[C@H](O)[C@@H]1O (some centres unmarked) [SAM]
in vitro tRNA methylation, nucleoside HPLC / LC-MS (osMnmM (osYtqB)): saMnmM, atMnmM, and osMnmM were capable of methylating the hypomodified tRNA substrates
in vitro tRNA methylation, nucleoside HPLC / LC-MS (atMnmM (atYtqB)): saMnmM, atMnmM, and osMnmM were capable of methylating the hypomodified tRNA substrates
